ChEMBL document CHEMBL6178010, “XPO1-Targeting Selective Inhibitors of Transcriptional Activation Suppress Graft-versus-Host Disease” (J Med Chem, 2025)
Each block holds one compound with its values, some of them ahead of it. Activity calls are given as the source filed them. The rule behind the calls is not given here.

Experiments:
[1] = target: Exportin-1 (Mus musculus) (UniProt Q6P5F9); test: In vivo binding affinity to XPO1 in mouse liver at 1 to 9 mg/kg, ip qd administered for 5 days by Western blot analysis; format: functional, organism-based; details: dose 1-9 mg/kg, time 5.0 day
Sequence of Exportin-1 (Mus musculus) (Q6P5F9 whole entry): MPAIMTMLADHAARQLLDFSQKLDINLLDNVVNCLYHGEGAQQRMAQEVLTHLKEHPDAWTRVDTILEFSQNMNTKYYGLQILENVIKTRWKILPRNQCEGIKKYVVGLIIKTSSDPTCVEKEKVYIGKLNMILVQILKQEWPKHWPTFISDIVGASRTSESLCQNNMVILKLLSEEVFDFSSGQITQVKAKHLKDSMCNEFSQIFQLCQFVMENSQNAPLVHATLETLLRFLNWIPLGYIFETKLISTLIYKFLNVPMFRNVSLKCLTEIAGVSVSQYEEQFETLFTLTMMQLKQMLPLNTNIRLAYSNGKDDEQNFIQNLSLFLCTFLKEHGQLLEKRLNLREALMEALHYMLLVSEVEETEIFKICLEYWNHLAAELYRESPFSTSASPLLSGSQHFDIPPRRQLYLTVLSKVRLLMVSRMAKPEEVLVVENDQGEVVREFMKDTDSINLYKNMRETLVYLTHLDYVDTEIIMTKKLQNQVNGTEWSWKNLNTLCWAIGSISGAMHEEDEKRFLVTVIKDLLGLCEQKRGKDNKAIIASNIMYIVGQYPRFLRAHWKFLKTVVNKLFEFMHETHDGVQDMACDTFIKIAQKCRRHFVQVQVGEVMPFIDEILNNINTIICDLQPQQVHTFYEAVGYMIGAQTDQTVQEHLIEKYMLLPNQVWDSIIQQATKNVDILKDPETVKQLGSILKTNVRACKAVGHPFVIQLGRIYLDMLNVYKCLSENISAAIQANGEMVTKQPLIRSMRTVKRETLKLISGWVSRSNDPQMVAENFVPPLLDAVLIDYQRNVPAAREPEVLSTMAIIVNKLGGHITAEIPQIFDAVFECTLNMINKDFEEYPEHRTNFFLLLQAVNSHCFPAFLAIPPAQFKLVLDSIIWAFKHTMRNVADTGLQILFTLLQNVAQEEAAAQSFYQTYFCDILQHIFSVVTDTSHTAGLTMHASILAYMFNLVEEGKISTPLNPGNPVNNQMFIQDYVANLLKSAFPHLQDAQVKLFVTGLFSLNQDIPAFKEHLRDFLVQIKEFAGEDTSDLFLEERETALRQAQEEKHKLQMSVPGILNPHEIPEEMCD

[2] = target: Exportin-1 (Mus musculus) (UniProt Q6P5F9); test: In vivo binding affinity to XPO1 in mouse spleen at 1 to 9 mg/kg, ip qd administered for 5 days by Western blot analysis; format: functional, organism-based; details: dose 1-9 mg/kg, time 5.0 day
[3] = target: Exportin-1 (Mus musculus) (UniProt Q6P5F9); test: In vivo binding affinity to XPO1 in mouse kidney at 1 to 9 mg/kg, ip qd administered for 5 days by Western blot analysis; format: functional, organism-based; details: dose 1-9 mg/kg, time 5.0 day
Exportin-1 [4] = target: T1, Exportin-1 (Homo sapiens, UniProt O14980); test: Covalent binding affinity to XPO1 in human Jurkat cells at 4 to 1000 nM by In-gel fluorescence analysis; format: cell-based; details: dose 4-1000 nM
T1 sequence (O14980 whole entry): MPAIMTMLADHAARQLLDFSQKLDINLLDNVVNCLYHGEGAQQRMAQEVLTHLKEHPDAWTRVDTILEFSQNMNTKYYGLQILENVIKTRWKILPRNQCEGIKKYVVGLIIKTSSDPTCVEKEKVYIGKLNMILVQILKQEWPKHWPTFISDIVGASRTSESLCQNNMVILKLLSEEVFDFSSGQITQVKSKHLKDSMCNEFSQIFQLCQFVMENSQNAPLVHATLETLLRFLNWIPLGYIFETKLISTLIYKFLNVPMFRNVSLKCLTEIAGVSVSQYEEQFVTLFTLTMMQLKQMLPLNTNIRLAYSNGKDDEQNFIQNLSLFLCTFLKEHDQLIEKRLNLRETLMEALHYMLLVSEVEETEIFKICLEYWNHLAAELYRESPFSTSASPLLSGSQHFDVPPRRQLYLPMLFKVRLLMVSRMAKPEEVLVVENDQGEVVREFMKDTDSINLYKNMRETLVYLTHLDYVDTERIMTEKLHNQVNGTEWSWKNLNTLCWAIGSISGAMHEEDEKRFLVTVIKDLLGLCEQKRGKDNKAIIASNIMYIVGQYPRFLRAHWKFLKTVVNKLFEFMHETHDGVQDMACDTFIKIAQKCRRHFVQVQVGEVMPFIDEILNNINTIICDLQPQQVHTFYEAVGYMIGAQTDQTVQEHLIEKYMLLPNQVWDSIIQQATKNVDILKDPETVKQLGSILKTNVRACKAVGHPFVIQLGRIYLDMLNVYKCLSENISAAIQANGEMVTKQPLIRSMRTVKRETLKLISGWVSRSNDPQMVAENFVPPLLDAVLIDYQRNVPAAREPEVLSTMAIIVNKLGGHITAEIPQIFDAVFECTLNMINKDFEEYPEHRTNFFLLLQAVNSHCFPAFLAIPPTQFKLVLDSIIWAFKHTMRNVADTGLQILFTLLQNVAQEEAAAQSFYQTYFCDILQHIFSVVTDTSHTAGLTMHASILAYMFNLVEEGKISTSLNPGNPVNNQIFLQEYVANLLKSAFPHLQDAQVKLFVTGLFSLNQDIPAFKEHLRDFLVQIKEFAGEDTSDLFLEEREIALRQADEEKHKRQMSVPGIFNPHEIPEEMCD

Jurkat [5] = test: Cytotoxicity against human Jurkat cells expressing XPO1 C528S mutant assessed as suppression of cell viability up to 1000 nM incubated for 24 hrs by CellTiter-Glo assay; format: functional, cell-based
Exportin-1 [6] = target: T1, Exportin-1; test: Inhibition of XPO1 in PMA/ionomycin-activated human Jurkat cells expressing IL-2 promoter reporter gene assessed as suppression of IL-2 transcriptional activity incubated for 6 hrs by Bright-Glo Luciferase assay; format: cell-based
Exportin-1 [7] = target: T1, Exportin-1; test: Inhibition of selinexor-alkyne binding to XPO1 at Cys528 in human Jurkat cells up to 300 nM pretreated for 1 hr followed by addition of selinexor-alkyne measured after 1 hr by In-gel fluorescence analysis; format: cell-based; details: time 2.0 hrs
Jurkat [8] = test: Cytotoxicity against human Jurkat cells assessed as suppression of cell viability incubated for 24 hrs by CellTiter-Glo assay; format: functional, cell-based
[9] = Metabolic stability in mouse liver microsome assessed as intrinsic clearance; format: ADME; details: liver microsomes, read-out: CLH
[10] = Drug exposure in mouse administered intraperitoneally; format: ADME; details: in vivo, ip
[11] = Metabolic stability in mouse liver microsome assessed as half life; format: ADME; details: liver microsomes
XPO1 = test: Selectivity ratio of EC50 for cytotoxicity against human Jurkat cells assessed as suppression of cell viability to EC50 for inhibition of XPO1 in PMA/ionomycin-activated human Jurkat cells expressing IL-2 promoter reporter gene assessed as suppression of IL-2 transcriptional activity; format: toxicity, cell-based; details: read-out: Ratio EC50
Jurkat [12] = test: Downregulation of IL-2 mRNA level in PMA/ionomycin-activated human Jurkat cells expressing XPO1 C528S mutant at 100 nM incubated for 6 hrs by RT-qPCR analysis; format: functional, cell-based
Mus musculus [13] = test: Anti-inflammatory activity in irradiated BALB/c mouse transplanted with bone marrow/splenic T-cells from C57BL/6 mouse assessed as suppression of CD3 positive T-cell infiltration in host liver at 10 mg/kg, ip qd administered daily for 7 days by IHC analysis; format: functional, organism-based; details: time 7.0 day
Mus musculus [14] = test: Suppression of T-cell activation in irradiated BALB/c mouse transplanted with bone marrow/splenic T-cells from C57BL/6 mouse assessed as downregulation of IFNG in host spleen at 10 mg/kg, ip administered daily for 7 days by RT-qPCR analysis; format: functional, organism-based; details: time 7.0 day
Mus musculus [15] = test: Suppression of T-cell activation in irradiated BALB/c mouse transplanted with bone marrow/splenic T-cells from C57BL/6 mouse assessed as downregulation of CSF2 in host spleen at 10 mg/kg, ip administered daily for 7 days by RT-qPCR analysis; format: functional, organism-based; details: time 7.0 day
[16] = Toxicity in mouse assessed as neutropenia at 10 mg/kg, ip administered daily for 5 days by CBC analysis; format: organism-based; details: in vivo, 120 h, time 5 day
[17] = Toxicity in mouse assessed as leukopenia at 10 mg/kg, ip administered daily for 5 days by CBC analysis; format: organism-based; details: in vivo, 120 h, time 5 day
Jurkat [18] = test: Cytotoxicity against human Jurkat cells expressing XPO1 C528S mutant assessed as suppression of cell viability up to 10000 nM incubated for 24 hrs by CellTiter-Glo assay; format: functional, cell-based
Exportin-1 [19] = target: T1, Exportin-1; test: Inhibition of selinexor-alkyne binding to XPO1 at Cys528 in human Jurkat cells up to 10 nM pretreated for 1 hr followed by addition of selinexor-alkyne measured after 1 hr by In-gel fluorescence analysis; format: cell-based; details: time 2.0 hrs
Jurkat [20] = test: Cytotoxicity against human Jurkat cells expressing XPO1 C528S mutant assessed as suppression of cell viability up to 100 nM incubated for 24 hrs by CellTiter-Glo assay; format: functional, cell-based
Jurkat [21] = test: Downregulation of IL-2 mRNA level in PMA/ionomycin-activated human Jurkat cells expressing XPO1 C528S mutant at 10 nM incubated for 6 hrs by RT-qPCR analysis; format: functional, cell-based
Mus musculus [22] = test: Anti-inflammatory activity in irradiated BALB/c mouse transplanted with bone marrow/splenic T-cells from C57BL/6 mouse assessed as increase in CD3 positive CD4 positive T cells in host spleen at 1 to 10 mg/kg, ip administered for 7 days by flow cytometry analysis; format: functional, organism-based; details: dose 1-10 mg/kg, time 7.0 day
Jurkat [23] = test: Downregulation of IL-2 mRNA level in PMA/ionomycin-activated human Jurkat cells expressing XPO1 C528S mutant at 200 nM incubated for 6 hrs by RT-qPCR analysis; format: functional, cell-based
Mus musculus [24] = test: Anti-inflammatory activity in irradiated BALB/c mouse transplanted with bone marrow/splenic T-cells from C57BL/6 mouse assessed as healthy appearance of animal at 1 to 10 mg/kg, ip administered for 7 days; format: functional, organism-based; details: dose 1-10 mg/kg, time 7.0 day
Mus musculus [25] = test: Anti-inflammatory activity in irradiated BALB/c mouse transplanted with bone marrow/splenic T-cells from C57BL/6 mouse assessed as suppression of IFNG mRNA level in host spleen administered as ip dose for 7 days by RT-qPCR analysis; format: functional, organism-based; details: dose 10-100 mg/kg, time 7.0 day
Mus musculus [26] = test: Anti-inflammatory activity in irradiated BALB/c mouse transplanted with bone marrow/splenic T-cells from C57BL/6 mouse assessed as suppression of TNF mRNA level in host spleen administered as ip dose for 7 days by RT-qPCR analysis; format: functional, organism-based; details: dose 10-100 mg/kg, time 7.0 day
[27] = Toxicity in irradiated BALB/c mouse transplanted with bone marrow/splenic T-cells from C57BL/6 mouse assessed as drug tolerance at 3 mg/kg, ip administered daily for 21 days; format: organism-based; details: in vivo, 504 h, time 21 day
Mus musculus [28] = test: Anti-inflammatory activity in irradiated BALB/c mouse transplanted with bone marrow/splenic T-cells from C57BL/6 mouse assessed as active behaviour of animal at 1 to 10 mg/kg, ip administered for 7 days; format: functional, organism-based; details: dose 1-10 mg/kg, time 7.0 day
Mus musculus [29] = test: Anti-inflammatory activity in irradiated BALB/c mouse transplanted with bone marrow/splenic T-cells from C57BL/6 mouse assessed as decrease in CD3 positive CD8 positive T cells in host spleen at 1 to 10 mg/kg, ip administered for 7 days by flow cytometry analysis; format: functional, organism-based; details: dose 1-10 mg/kg, time 7.0 day
Mus musculus [30] = test: Anti-inflammatory activity in irradiated BALB/c mouse transplanted with bone marrow/splenic T-cells from C57BL/6 mouse assessed as improvement in animal survival at 3 mg/kg, ip administered daily for 21 days; format: functional, organism-based; details: time 21.0 day
Mus musculus [31] = test: Anti-inflammatory activity in irradiated BALB/c mouse transplanted with bone marrow/splenic T-cells from C57BL/6 mouse assessed as suppression of CSF2 mRNA level in host spleen administered as ip dose for 7 days by RT-qPCR analysis; format: functional, organism-based; details: dose 10-100 mg/kg, time 7.0 day
Mus musculus [32] = test: Anti-inflammatory activity in irradiated BALB/c mouse transplanted with bone marrow/splenic T-cells from C57BL/6 mouse assessed as suppression of CCL3 mRNA level in host spleen administered as ip dose for 7 days by RT-qPCR analysis; format: functional, organism-based; details: dose 10-100 mg/kg, time 7.0 day
Mus musculus [33] = test: Anti-inflammatory activity in irradiated BALB/c mouse transplanted with bone marrow/splenic T-cells from C57BL/6 mouse assessed as reduction in animal lethality at 10 mg/kg, ip administered daily measured for 8 days; format: functional, organism-based; details: time 8.0 day
Exportin-1 [34] = target: T1, Exportin-1; test: Covalent binding affinity to XPO1 in human Jurkat cells at 0.6 to 123 nM by In-gel fluorescence analysis; format: cell-based; details: dose 0.6-123 nM
[35] = target: Exportin-1 (Mus musculus) (UniProt Q6P5F9); test: In vivo binding affinity to XPO1 in mouse liver at 10 mg/kg, ip qd administered for 5 days by Western blot analysis; format: functional, organism-based; details: time 5.0 day
[36] = target: Exportin-1 (Mus musculus) (UniProt Q6P5F9); test: In vivo binding affinity to XPO1 in mouse spleen at 10 mg/kg, ip qd administered for 5 days by Western blot analysis; format: functional, organism-based; details: time 5.0 day
[37] = target: Exportin-1 (Mus musculus) (UniProt Q6P5F9); test: In vivo binding affinity to XPO1 in mouse kidney at 10 mg/kg, ip qd administered for 5 days by Western blot analysis; format: functional, organism-based; details: time 5.0 day

Activity [1]: Active | Activity [2]: Active | Activity [3]: Active | Activity (Exportin-1 [4]): Active
SMILES: C#Cc1cc2c(NN3C(=O)C=C(C)C3=O)nc(C(F)(F)F)nn2c1

EC50 (Exportin-1 [6]): 34 nM | inhibition (Exportin-1 [7]): Active | microsomal CLint [9]: < 23 µL/min/mg | Drug uptake [10]: Active | half-life [11]: > 60 min
SMILES: CC1=CC(=O)N(Nc2nc(N3CCCC3)nn3cccc23)C1=O
Activity (Jurkat [5]): inactive | EC50 (Jurkat [8]): 240 nM | selectivity ratio (XPO1): 7.1 | Activity (Jurkat [12]): inactive

EC50 (Exportin-1 [6]): 31 nM | inhibition (Exportin-1 [7]): Active | microsomal CLint [9]: < 23 µL/min/mg | Drug uptake [10]: Active | half-life [11]: > 60 min
SMILES: CC1=CC(=O)N(Nc2nc(C(F)(F)F)nn3cccc23)C1=O
Activity (Mus musculus [22]): Active | Activity (Jurkat [5]): inactive | Activity (Jurkat [23]): inactive | Activity (Mus musculus [24]): Active | EC50 (Jurkat [8]): 270 nM | Activity (Mus musculus [13]): Active | Activity (Mus musculus [25]): Dose-dependent-effect | Activity (Mus musculus [26]): Dose-dependent-effect | Activity (Mus musculus [14]): Active; Compound Showed Stronger Effect Than Sp100030 | Activity (Mus musculus [15]): Active; Compound Showed Stronger Effect Than Sp100030 | Activity [16]: Non-toxic | Activity [27]: Non-toxic | selectivity ratio (XPO1): 8.7 | Activity (Mus musculus [28]): Active | Activity (Mus musculus [29]): Active | Activity [17]: Non-toxic | Activity (Mus musculus [30]): Active | Activity (Mus musculus [31]): Dose-dependent-effect | Activity (Mus musculus [32]): Dose-dependent-effect

EC50 (Exportin-1 [6]): 2 nM | microsomal CLint [9]: > 139 µL/min/mg | half-life [11]: < 10 min
SMILES: CC1=CC(=O)N(Nc2ccc(C(F)(F)F)c(N3CCCC3)n2)C1=O
EC50 (Jurkat [8]): 92 nM | selectivity ratio (XPO1): 46

The next lines start with the compound.

SMILES: CC1=CC(=O)N(Nc2cc(C(F)(F)F)cc(C(F)(F)F)c2)C1=O
microsomal CLint [9]: < 23 µL/min/mg | Activity (Mus musculus [13]): Active | Drug uptake [10]: Active | Activity (Mus musculus [14]): Active; Compound Showed Stronger Effect Than Sp100030 | Activity (Mus musculus [15]): Active; Compound Showed Stronger Effect Than Sp100030 | half-life [11]: > 60 min | Activity [16]: Non-toxic | Activity [17]: Non-toxic

SMILES: CC1=CC(=O)N(Nc2ccc(C(F)(F)F)c(N(C)C)n2)C1=O
EC50 (Exportin-1 [6]): 8.3 nM | EC50 (Jurkat [8]): 696 nM | Activity (Jurkat [18]): Active | inhibition (Exportin-1 [19]): Active | selectivity ratio (XPO1): 83.9 | Activity (Jurkat [12]): inactive

SMILES: CC1=CC(=O)N(Nc2ccc(C(F)(F)F)c(N3CC4CC4C3)n2)C1=O (stereo unspecified)
EC50 (Exportin-1 [6]): 1 nM | EC50 (Jurkat [8]): 30.4 nM | microsomal CLint [9]: > 139 µL/min/mg | Activity (Jurkat [20]): Active | inhibition (Exportin-1 [19]): Active | half-life [11]: < 10 min | selectivity ratio (XPO1): 30.4 | Activity (Jurkat [21]): inactive

SMILES: O=C(/C=C\n1cnc(-c2cc(C(F)(F)F)cc(C(F)(F)F)c2)n1)NNc1cnccn1 [SELINEXOR]
Activity (Mus musculus [33]): inactive | Activity [16]: Toxic | Activity [17]: Toxic

SMILES: C#Cc1cc(NN2C(=O)C=C(C)C2=O)cc(C(F)(F)F)c1
Activity (Exportin-1 [34]): Active | Activity [35]: Active | Activity [36]: Active | Activity [37]: Active
